pIC50: −log10 of the molar value. Active and inactive are the calls of the source. No rule for the calls is given here.
These molecules were tested against Microphthalmia-associated transcription factor (Homo sapiens) (UniProt O75030) (assay: MITF inhibitors, potency by titration, dose response, biochemical, AlphaScreen, human (AID 1259371)). Conditions: AlphaScreen biochemical MITF assay, signal inhibition.
Sequence of Microphthalmia-associated transcription factor (Homo sapiens) (O75030 whole entry, looked up): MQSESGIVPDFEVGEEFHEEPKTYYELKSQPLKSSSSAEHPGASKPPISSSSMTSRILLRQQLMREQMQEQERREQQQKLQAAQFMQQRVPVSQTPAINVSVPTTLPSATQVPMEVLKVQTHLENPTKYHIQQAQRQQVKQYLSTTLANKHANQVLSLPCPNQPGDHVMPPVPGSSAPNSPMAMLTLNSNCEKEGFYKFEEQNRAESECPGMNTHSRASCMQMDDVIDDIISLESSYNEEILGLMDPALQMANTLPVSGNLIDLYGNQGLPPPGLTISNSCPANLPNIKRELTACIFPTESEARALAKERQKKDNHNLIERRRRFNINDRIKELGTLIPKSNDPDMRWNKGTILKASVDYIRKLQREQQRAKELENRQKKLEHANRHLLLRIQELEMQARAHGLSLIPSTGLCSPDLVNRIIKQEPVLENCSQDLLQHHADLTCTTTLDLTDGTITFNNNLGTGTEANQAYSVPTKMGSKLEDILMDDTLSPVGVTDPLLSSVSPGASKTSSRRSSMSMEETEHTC

| SMILES | IC50 | pIC50 |
| --- | --- | --- |
| O=C(OC1CCCC1=O)c1ccc(Cl)c(S(=O)(=O)N2CCOCC2)c1 (stereo not drawn) | inactive | – |
| Cc1cccc(N2CCN(C(=O)/C=C\C(=O)O)CC2)c1C | inactive | – |
| O=C1O[C@H](C(O)CO)C(O)=C1O (stereo partly drawn) | inactive | – |
| O=C(O)CCC(NCc1ccco1)C(=O)O (stereo not drawn) | – | 6.09 |
| Cc1ccc(S(=O)(=O)C(CNC(=O)c2ccco2)c2cccs2)cc1 (stereo not drawn) | inactive | – |
| COc1cc(OC)c(CN2CCCC(O)C2)cc1Br (stereo not drawn) | > 6480 nM (inactive) | – |
| CC(C)[C@@H]1NC(=O)[C@H]2CN(C(=O)NCc3ccccc3)CCN2C1=O | – | 6.09 |
| O=C1N[C@@H](CC2CCCCC2)C(=O)N2CCN(C(=O)NCc3ccccc3)C[C@H]12 | > 2160 nM (inactive) | – |
| CC[C@@H]1NC(=O)[C@H]2CN(C(=O)NCc3ccccc3)CCN2C1=O | – | 6.36 |
| CN(C)[C@@H]1C(=O)C(C(=O)NCN2CCCC2)=C(O)[C@@]2(O)C(=O)C3=C(O)c4c(O)cccc4[C@@](C)(O)[C@H]3C[C@@H]12 | – | 6.37 |
| CCC(C)c1ccccc1OCCNCCN(C)C (stereo not drawn) | > 6480 nM (inactive) | – |
| CCOc1ncccc1C(=O)OCC(=O)Nc1oc(-c2ccco2)c(-c2ccco2)c1C#N | – | 6.25 |
| O=C(/C=C/c1ccc(-c2cccc(C(F)(F)F)c2)o1)c1ccco1 | – | 6.80 |
| COC(C)(C)CNC(=O)C1CCN(C2CCN(Cc3cccc(C)n3)CC2)CC1 | inactive | – |
| Cn1nnc(-c2ccc(Nc3nccc(-c4ccc5nc(C6CC6)[nH]c(=O)c5c4)n3)cc2)n1 | inactive | – |
| O=c1[nH]c(/C=C/c2ccco2)nc(O)c1[N+](=O)[O-] | – | 6.55 |
| O=c1[nH]cc(N=Cc2ccc([N+](=O)[O-])o2)c(=O)[nH]1 | – | 8.15 |
| CN(C)C1C(=O)C(C(N)=O)=C(O)C2(O)C(=O)C3=C(O)c4c(O)cccc4C(C)(O)C3CC12 (stereo not drawn) | > 6480 nM (inactive) | – |
| CCN(CC)c1ncnc2c1ncn2[C@@H]1O[C@H](COP(=O)(O)OP(=O)(O)C(Br)(Br)P(=O)(O)O)C(O)[C@@H]1O (stereo partly drawn) | – | 6.76 |
| CC(C)[C@H]1NC(=O)[C@H]2CN(C(=O)NC3CCCCC3)CCN2C1=O | inactive | – |
| O=C(NCC(c1cccs1)S(=O)(=O)c1ccc(Cl)cc1)c1ccco1 (stereo not drawn) | inactive | – |
| COc1ccc(C[C@@H]2NC(=O)[C@H]3CN(C(=O)NC4CCCCC4)CCN3C2=O)cc1 | inactive | – |
| COc1ccc(CC2NCCc3cc(OC)c(OC)cc32)cc1OC (stereo not drawn) | – | 7.40 |
| O=C1N[C@@H](Cc2ccc(O)cc2)C(=O)N2CCN(C(=O)NCc3ccccc3)C[C@H]12 | > 2160 nM (inactive) | – |
| CCN(CC)C(=S)NC(=O)/C=C/c1ccco1 | – | 7.05 |
| O=C(NC1CCCCC1)N1CCN2C(=O)[C@@H]3CSCN3C(=O)[C@H]2C1 | inactive | – |

| SMILES | IC50 | pIC50 |
| --- | --- | --- |
| Cc1cc(C)n2nc(N)c(N)c2n1 | > 11600 nM (inactive) | – |
| CC(C)N(C)CCOC(=O)/C=C/c1ccco1 | inactive | – |
| CCn1ccnc1CN1CCN(Cc2cccc(OC)c2)C(CCO)C1 (stereo not drawn) | > 6480 nM (inactive) | – |
| COc1ccc(C)cc1NS(=O)(=O)c1ccc2c(c1)CCC(=O)N2 | inactive | – |
| Cc1nnc(CNC(=O)c2ccc(-n3cccc3)cc2)o1 | inactive | – |
| Nc1ccc(C(=O)O)c(O)c1 | – | 7.20 |
| CN1CCN(CCNC(=O)c2cccc(CN(C(=O)c3nc4ccc(-c5cn[nH]c5)cc4s3)C3CC3)c2)CC1 | – | 6.19 |
| C=CCc1cc(C)ccc1OCCCCn1ccnc1 | > 6480 nM (inactive) | – |
| CSc1ccc(C(=O)O)s1 | inactive | – |
| O=C(NC1CCN(Cc2ccccc2)CC1)c1ccc2nc(-c3cccs3)sc2c1 | > 6380 nM (inactive) | – |
| CCc1ccc(CN2CCN(C(C)C)CC2)cc1 | > 6890 nM (inactive) | – |
| O=C(Nc1ccc(-c2cn[nH]c2)c(C(F)(F)F)c1)C1COc2ccccc2O1 (stereo not drawn) | > 2160 nM (inactive) | – |
| COc1ccc2c(c1)CC(C(=O)Nc1ccc(-c3cn[nH]c3)cc1OCc1ccccc1)CO2 (stereo not drawn) | inactive | – |
| CCCOc1ccc(N)cc1N | inactive | – |
| S=c1[nH]nc(-c2cccnc2)n1/N=C/C=C/c1ccco1 | – | 6.33 |
| C/C(N)=C(/C#N)C(=O)COC(=O)c1c2c(nc3ccccc13)/C(=C/c1ccco1)CC2 | – | 6.35 |
| O=C1N[C@H](Cc2ccccc2)C(=O)N2CCN(C(=O)NCc3ccccc3)C[C@H]12 | inactive | – |
| CN1C(=O)[C@H]2CN(C(=O)NC3CCCCC3)CCN2C(=O)[C@@H]1Cc1ccccc1 | inactive | – |
| O=C(O)c1ccc(-n2cccc2)cc1Cl | – | 6.20 |
| O=C(NC1CCCCC1)N1CCN2C(=O)[C@@H]3CCCN3C(=O)[C@H]2C1 | inactive | – |
| N#C/C(=C/c1ccco1)c1cccc(F)c1 | inactive | – |
| N#CC1=C(N)n2c(s/c(=C\c3ccco3)c2=O)=C(C#N)C1c1ccco1 (stereo not drawn) | – | 8.41 |
| O=C(O)c1cccc2c1C(=O)N(c1ccccc1)C2 | inactive | – |
| COc1nccnc1NS(=O)(=O)c1ccc(NC(=O)c2ccc([N+](=O)[O-])c(C)c2)cc1 | > 6480 nM (inactive) | – |
| O=C(O)c1cc(S(=O)(=O)Nc2ccc(-n3cnnn3)cc2)ccc1O | inactive | – |
| O=c1cc(/C=C/c2ccc(O)cc2)nc2nn[nH]n12 | inactive | – |

| SMILES | IC50 | pIC50 |
| --- | --- | --- |
| Cc1ncn(-c2ccc(N(C)c3ncc4cccc(-c5ccn[nH]5)c4n3)cc2)n1 | > 6480 nM (inactive) | – |
| Cc1ccc(C(=O)Nc2ccc([N+](=O)[O-])cn2)o1 | > 6480 nM (inactive) | – |
| Cc1ccc(/C=C/C(=O)NCc2ccccn2)o1 | inactive | – |
| O=C(NC1CCCCC1)N1CCN2C(=O)[C@@H]3C[C@@H](O)CN3C(=O)[C@H]2C1 | inactive | – |
| O=C(/C=C/c1ccco1)NCCCCCCNC(=O)/C=C/c1ccco1 | inactive | – |
| Nc1cc2c(S(=O)(=O)O)cc(S(=O)(=O)O)cc2cc1S(=O)(=O)O | > 6480 nM (inactive) | – |
| CCc1ccc(NC(=O)CCc2nc(C3=CCN(C)CC3)no2)cc1 | inactive | – |
| CN(C)CCOCCOc1ccccc1-c1ccccc1 | inactive | – |
| Cc1c(NC(=O)C(C)OC(=O)c2cc3c(s2)CCC3)c(=O)n(-c2ccccc2)n1C (stereo not drawn) | – | 6.02 |
| CC(C)[C@@H]1NC(=O)[C@H]2CN(C(=O)NC3CCCCC3)CCN2C1=O | > 2160 nM (inactive) | – |
| O=c1[nH]c(-c2ccco2)nc2sc3c(c12)CCCC3 | – | 7.37 |
| Oc1ccc2c(c1)C1CCCC1(N1CCOCC1)O2 (stereo not drawn) | inactive | – |
| CC(C)C[C@H]1C(=O)N2CCN(C(=O)NC3CCCCC3)C[C@@H]2C(=O)N1C | > 2160 nM (inactive) | – |
| Cc1nc(C)n(-c2ccc(Nc3cc(-n4cc(N(c5cccnc5)c5cccnc5)cn4)ccn3)cc2)n1 | – | 6.06 |
| Cc1ccc(/C(C#N)=C\c2ccco2)cc1 | inactive | – |
| O=C(/C=C/c1ccco1)NC(=S)NNC(=O)c1ccccc1O | > 2160 nM (inactive) | – |
| COc1cc(OC)c(OC)cc1CN1CCN(Cc2ccc(C)cc2)CC1 | > 5760 nM (inactive) | – |
| C[C@@H](OCc1ccccc1)[C@@H]1NC(=O)[C@H]2CN(C(=O)Nc3cccc(F)c3)CCN2C1=O | inactive | – |
| O=S(=O)(c1ccccc1C(F)(F)F)N1CCC(c2nc3ccccc3[nH]2)CC1 | – | 6.33 |
| COc1ccc2c(c1)CC(C(=O)Nc1ccc(-c3cn[nH]c3)cc1OCC#N)CO2 (stereo not drawn) | inactive | – |
| O=C1N[C@@H](COCc2ccccc2)C(=O)N2CCN(C(=O)NC3CCCCC3)C[C@H]12 | inactive | – |
| CC[C@H](C)[C@@H]1NC(=O)[C@H]2CN(C(=O)NC3CCCCC3)CCN2C1=O | > 2160 nM (inactive) | – |
| Cc1cccc(CN2CCN(C3CCC(C)CC3)CC2)c1 (stereo not drawn) | > 5540 nM (inactive) | – |
| CCN(CCN(C)C)Cc1ccc(F)cc1 | > 6480 nM (inactive) | – |
| O=C(O)CCCNC(=O)/C=C/c1ccco1 | > 2160 nM (inactive) | – |
| NC(=O)Cn1cnc2sc3c(c2c1=O)CCC3 | inactive | – |

| SMILES | IC50 | pIC50 |
| --- | --- | --- |
| COc1cc(OC)c(C(=O)OC2CCCC2=O)cc1OC (stereo not drawn) | inactive | – |
| N#Cc1c(-c2ccc3c(c2)OCO3)nc(N2CCCCC2)[nH]c1=O | inactive | – |
| c1cncc(CNc2nc(Nc3ccc(N4CCOCC4)cc3)c3ncn(C4CCCCC4)c3n2)c1 | > 4840 nM (inactive) | – |
| NC(=O)COC(=O)c1cc2c(s1)CCC2 | inactive | – |
| Cc1cc(NC(=O)C2CCN(C(=O)c3ccc(-n4cccc4)cc3)CC2)no1 | inactive | – |
| COc1ccc(S(=O)(=O)N2CCN(Cc3ccccc3[N+](=O)[O-])CC2)cc1 | > 4330 nM (inactive) | – |
| O=C(c1ccc2nc(-c3ccco3)c(-c3ccco3)nc2c1)N1CCSCC1 | – | 6.65 |
| Cc1cccc(NC(=O)c2ccc(NS(=O)(=O)c3ccc4[nH]cc(C(=O)O)c(=O)c4c3)cc2)c1 | > 1580 nM (inactive) | – |
| CN(C)CCCNC(=O)c1cccc(CN(C(=O)c2nc3ccc(-c4cn[nH]c4)cc3s2)C2CC2)c1 | inactive | – |
| Cc1cc2ncn(Cc3noc(-c4ccco4)n3)c2cc1C | > 6480 nM (inactive) | – |
| CC(C)C[C@@H]1NC(=O)[C@H]2CN(C(=O)NC3CCCCC3)CCN2C1=O | – | 6.01 |
| CC(=C/C(=O)O)/C=C/c1ccoc1 | – | 6.80 |
| C[C@@H](OCc1ccccc1)[C@@H]1NC(=O)[C@H]2CN(C(=O)NCc3ccccc3)CCN2C1=O | inactive | – |
| CN(C)/C=C/C=C/C=C/C(=O)c1ccc(C(=O)/C=C/C=C/C=C/N(C)C)cc1 | – | 7.01 |
| CN(CCOC(=O)/C=C/c1ccco1)Cc1ccccc1 | – | 7.32 |
| CC(C)NC(=O)c1cccc(NC(=O)Nc2ccc(-c3ncnc4[nH]cc(Cl)c34)cc2)c1 | – | 6.17 |
| Nc1cc(Br)cnc1N | – | 7.21 |
| CCOC(=O)c1cc(N2C(=O)C3C4C=CC(C4)C3C2=O)ccc1Cl (stereo not drawn) | inactive | – |
| CCCCn1c(=O)[nH]c(=O)c2c1nc(-c1ccc([N+](=O)[O-])o1)n2C | – | 7.18 |
| O=C(O)c1cccc(-n2cccc2/C=C2/NC(=O)N(c3ccc(Cl)cc3)C2=O)c1 | – | 7.37 |
| COC(=O)c1c(NC(=O)c2ccc([N+](=O)[O-])o2)sc(Cc2ccc3c(c2)OCO3)c1C | inactive | – |
| CN(C)CCS(=O)c1cc(-c2cn[nH]c2)ccc1NC(=O)[C@@H]1Cc2cc(F)ccc2CN1 (stereo partly drawn) | inactive | – |
| CCOC(=O)C1C2NC(=S)N(c3ccc(C)cc3)C1(C)Oc1c(OCC)cccc12 (stereo not drawn) | > 4890 nM (inactive) | – |
| CCN1CCN(CCOCCOc2ccc(F)cc2)CC1 | > 6480 nM (inactive) | – |
| CN(C)/C=C/C=C/C(=O)c1cccc(C(=O)/C=C/C=C/N(C)C)c1O | – | 6.52 |
